The first assay deals with Cannabinoid receptor 1 (Rattus norvegicus) (UniProt P20272). As to the kind of experiment: Displacement of [3H][…] from CB1 receptor in Rattus norvegicus (rat) cerebellum homogenate at 1 uM after 2 hr by scintillation counting. In kind it is tissue-based.
Cannabinoid receptor 1 (Rattus norvegicus), sequence (P20272 whole entry): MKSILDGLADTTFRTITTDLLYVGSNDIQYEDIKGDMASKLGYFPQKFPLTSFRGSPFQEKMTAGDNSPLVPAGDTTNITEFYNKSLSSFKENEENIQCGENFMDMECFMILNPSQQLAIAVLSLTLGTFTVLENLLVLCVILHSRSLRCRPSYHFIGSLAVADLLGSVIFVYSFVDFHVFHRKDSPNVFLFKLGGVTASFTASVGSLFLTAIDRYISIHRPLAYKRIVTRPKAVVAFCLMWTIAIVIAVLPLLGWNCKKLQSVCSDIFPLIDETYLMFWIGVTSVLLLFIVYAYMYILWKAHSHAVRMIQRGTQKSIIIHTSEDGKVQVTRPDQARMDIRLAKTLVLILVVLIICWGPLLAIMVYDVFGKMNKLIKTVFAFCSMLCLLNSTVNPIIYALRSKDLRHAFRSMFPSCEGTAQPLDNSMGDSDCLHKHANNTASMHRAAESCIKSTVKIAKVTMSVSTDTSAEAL
Details: not given
(In general: In a radioligand displacement assay an active substance lowers the binding of a labelled ligand.)
The inhibition is the share of the control response that was lost under treatment. Read a low inhibition as a response near the control. For the compound `N#CCCn1nc(-c2ccc(Cl)cc2)c(-c2ccc(Cl)cc2Cl)n1`, the inhibition came to 26%.
`CCOC(=O)CCn1nc(-c2ccc(Cl)cc2)c(-c2ccc(Cl)cc2Cl)n1`: the inhibition came out at 22%.

The target is the same in another assay. Kind of assay: Displacement of [3H][…] from CB1 receptor in Rattus norvegicus (rat) cerebellum homogenate at 100 uM after 2 hr by scintillation counting. In kind it is tissue-based.
Details: not given
As for `CCCCOC(=O)n1nc(-c2ccc(Cl)cc2)c(-c2ccc(Cl)cc2Cl)n1`, the inhibition came to 30%.

For a further assay, the target named is Cannabinoid receptor 1 (Rattus norvegicus, UniProt P20272). As to the kind of experiment: Displacement of [3H][…] from CB1 receptor in Rattus norvegicus (rat) cerebellum homogenate after 2 hr by scintillation counting. In kind it is tissue-based.
Cannabinoid receptor 1, sequence (P20272 whole entry): as above
Details: not given
As usually defined, the Ki is the equilibrium dissociation constant of an inhibitor or competing ligand from its target. Turning to `CCC/C=C\Cn1nnc(-c2ccc(Cl)cc2Cl)c1-c1ccc(Cl)cc1`, the Ki result is recorded as “ND(Insoluble)”.
For `CCCCCCn1nnc(-c2ccc(Cl)cc2Cl)c1-c1ccc(Cl)cc1`, the Ki result is recorded as “ND(Insoluble)”.
On the same count and under the same terms, the entry for `C=CCn1nnc(-c2ccc(Cl)cc2Cl)c1-c1ccc(Cl)cc1` is “ND(Insoluble)”.

Still in this assay, the particulars now being: read-out: Ki.
Turning to `COC(=O)Cn1nnc(-c2ccc(Cl)cc2Cl)c1-c1ccc(Cl)cc1`, the Ki worked out at 247 nM.
For `OCCn1nnc(-c2ccc(Cl)cc2Cl)c1-c1ccc(Cl)cc1`, the inhibition constant Ki worked out at 163 nM.
On the same count and under the same terms, then `FCCn1nc(-c2ccc(Cl)cc2)c(-c2ccc(Cl)cc2Cl)n1`, with 79 nM; and `N#CCn1nc(-c2ccc(Cl)cc2)c(-c2ccc(Cl)cc2Cl)n1`, with 232 nM.
`CCCn1nnc(-c2ccc(Cl)cc2Cl)c1-c1ccc(Cl)cc1`: the inhibition constant (Ki) stood at 152 nM.
On to `Clc1ccc(-c2nn(Cc3ccccc3)nc2-c2ccc(Cl)cc2Cl)cc1`, for which the Ki turned out to be 230 nM.
The same measure, in the same setting: then `ClCCn1nc(-c2ccc(Cl)cc2)c(-c2ccc(Cl)cc2Cl)n1`, with 80 nM.
`OCCn1nc(-c2ccc(Cl)cc2)c(-c2ccc(Cl)cc2Cl)n1`: the Ki was determined as 660 nM.
Still for that read-out and setting: the figure for `COC(=O)Cn1nc(-c2ccc(Cl)cc2)c(-c2ccc(Cl)cc2Cl)n1` is 855 nM; for `Clc1ccc(-c2c(-c3ccc(Cl)cc3Cl)nnn2Cc2ccccc2)cc1` it is 187 nM.
The same measure, in the same setting: the figure for `COC(=O)CCn1nc(-c2ccc(Cl)cc2)c(-c2ccc(Cl)cc2Cl)n1` is 2360 nM; for `FCCn1nnc(-c2ccc(Cl)cc2Cl)c1-c1ccc(Cl)cc1` it is 421 nM.

The record behind these values is ChEMBL document CHEMBL3046646, “Regioselective synthesis and cannabinoid receptor binding affinity of N-alkylated 4,5-diaryl-1,2,3-triazoles” (Med Chem Res, 2012).
